Like-named read-outs stand apart in the source and are kept apart here.
What was measured:
spHAS [1] = biological target: T1, spHAS (Streptococcus pyogenes serotype M6, UniProt Q5X9A9); test: Effect of sulfhydryl reagents on spHAS activity in E. coli membranes; assay type: biochemical; details: for Inhibition of HAS Activity (% relative to control), spHAS: E. coli membranes with spHAS-H6, 4° C. 1 h, 5 mM NEM, 5 mM IAA, 0.5 mM 5,5′-dithiobis-(2-nitrobenzoic acid), 0.05 mM methylmethanethiosulfonate, 10 mM sodium arsenite
T1 construct: made in house; host or cells: E. coli SURE cells (isolated membranes)
T1 sequence (Q5X9A9 1-419): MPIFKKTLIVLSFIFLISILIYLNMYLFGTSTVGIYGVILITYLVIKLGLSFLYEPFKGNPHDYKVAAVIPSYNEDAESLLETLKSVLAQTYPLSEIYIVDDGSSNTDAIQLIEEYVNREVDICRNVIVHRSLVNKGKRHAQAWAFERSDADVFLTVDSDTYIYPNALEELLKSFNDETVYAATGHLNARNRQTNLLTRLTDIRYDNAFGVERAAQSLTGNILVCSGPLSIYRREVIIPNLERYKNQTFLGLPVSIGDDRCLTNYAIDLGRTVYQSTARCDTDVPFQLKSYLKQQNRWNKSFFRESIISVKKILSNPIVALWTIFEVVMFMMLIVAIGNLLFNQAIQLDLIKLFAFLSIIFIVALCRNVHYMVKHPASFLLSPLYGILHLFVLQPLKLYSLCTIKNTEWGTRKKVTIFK
Description: (§1) SeHAS is the smallest HAS protein (417 amino acids) and contains four Cys residues. […] To explore the possible role of cysteines in the function of HAS, the activities of seHAS and spHAS were assayed in the presence of different sulfhydryl reagents (Table II). […] The inhibition of each HAS by NEM was examined in more detail with respect to time of incubation and NEM concentration (FIG. 2).
(§2) E. coli SURE cells transformed with plasmids containing various seHAS mutants were grown in LB medium with vigorous shaking at 32° C. to A600 ˜0.8 and induced with 1 mM isopropyl-β-thiogalactoside for 3 h. Cells were harvested and membranes were prepared as described previously. The kinetic constants for HAS were determined at 37° C. in 100 μl of 50 mM sodium and potassium phosphate, pH 7.0, with 20 mM MgCl2, 1 mM DTE, 240 μM UDP-GIcUA, 0.7 μM UDP-[^14C]GIcUA and 0.6–1.0 mM UDP-GIcNAc. in 100 μl of 25 mM sodium and potassium phosphate, pH 7, containing 50 mM NaCl, 20 mM MgCl2, 1 mM dithiothreitol, 1 mM UDP-GIcUA, 0.68 μM UDP-GIcUA and 1 mM UDP-GIcNAc. Some assays also contained 0.1 mM EDTA and 20% glycerol (v/v). To initiate the enzyme reaction, ˜0.5–40 μg of membrane protein was added and the mixtures were gently shaken in a MicroMixer X-36 (Tiatec) at 30° C. for 1–2 h. Reactions were terminated by the addition of SDS to a final concentration of 2% (w/v). The incorporation of radioactive [^14C]GIcUA was determined by descending paper chromatography and the Km and Vmax values were determined as described by Tlapak-Simmons et al (1999b). Data were analyzed by the methods of Michaelis-Menton or Hill. Protein content was determined by the method of Bradford using bovine serum albumin as the standard. All Cys-mutant or sulfhydryl-treated seHAS samples were assayed in duplicate or triplicate using two or three independent membrane preparations. […] All enzyme assays were performed under conditions that were linear with respect to time and protein concentration.
(§3) Stock solutions (10–100 mM) of NEM, IAA or other sulfhydryl reagents were made in PBS, pH 7.0. Suspensions of membranes containing seHAS or spHAS were incubated with 0–5 mM of the sulfhydryl reagent at 4° C. and the reactions were stopped by adding DTE to a final concentration of 10 mM. The membranes were then assayed for HAS activity as described above.

seHAS [2] = test: Effect of sulfhydryl reagents on seHAS activity in E. coli membranes; assay type: biochemical, Streptococcus equisimilis; details: E. coli membranes with seHAS-H6, 4° C. 1 h, 5 mM NEM, 5 mM IAA, 0.5 mM 5,5′-dithiobis-(2-nitrobenzoic acid), 0.05 mM methylmethanethiosulfonate, 10 mM sodium arsenite
Description: as §1, §2, §3

wild-type seHAS = test: Utilization of UDP-GlcUA and UDP-GlcNAc by wild-type seHAS after NEM or sodium arsenite treatment; assay type: biochemical, Streptococcus equisimilis; details: membranes 4° C. 1 h with 5 mM NEM or 10 mM sodium arsenite
Description: FIG. 3. Effect of NEM or sodium arsenite treatment on the utilization of UDP-GIcUA and UDP-GIcNAc by wild-type seHAS. E. coli membranes containing seHAS protein were incubated at 4° C. for 1 h in PBS containing 5 mM NEM or 10 mM Sodium Arsenite (SodArs), and the control membranes were incubated with PBS alone. Michaelis-Menten constants (Km) were calculated from the activities of seHAS at varying concentrations of UDP-GIcUA or UDP-GIcNAc.
Modification of the protein by NEM could affect any one or several of the six discrete functions that HAS must perform in order to synthesize HA. In order to determine if one of the nucleotide-sugar binding sites was affected by NEM, we examined the UDP-GIcUA and UDP-GIcNAc saturation profiles for treated and untreated seHAS (FIG. 3 and Table III).
E. coli SURE cells transformed with plasmids containing various seHAS mutants were grown in LB medium with vigorous shaking at 32° C. to A600 ˜0.8 and induced with 1 mM isopropyl-β-thiogalactoside for 3 h. Cells were harvested and membranes were prepared as described previously. The kinetic constants for HAS were determined at 37° C. in 100 μl of 50 mM sodium and potassium phosphate, pH 7.0, with 20 mM MgCl2, 1 mM DTE, 240 μM UDP-GIcUA, 0.7 μM UDP-[^14C]GIcUA and 0.6–1.0 mM UDP-GIcNAc. in 100 μl of 25 mM sodium and potassium phosphate, pH 7, containing 50 mM NaCl, 20 mM MgCl2, 1 mM dithiothreitol, 1 mM UDP-GIcUA, 0.68 μM UDP-GIcUA and 1 mM UDP-GIcNAc. Some assays also contained 0.1 mM EDTA and 20% glycerol (v/v). To initiate the enzyme reaction, ˜0.5–40 μg of membrane protein was added and the mixtures were gently shaken in a MicroMixer X-36 (Tiatec) at 30° C. for 1–2 h. Reactions were terminated by the addition of SDS to a final concentration of 2% (w/v). The incorporation of radioactive [^14C]GIcUA was determined by descending paper chromatography and the Km and Vmax values were determined as described by Tlapak-Simmons et al (1999b). Data were analyzed by the methods of Michaelis-Menton or Hill. Protein content was determined by the method of Bradford using bovine serum albumin as the standard. All Cys-mutant or sulfhydryl-treated seHAS samples were assayed in duplicate or triplicate using two or three independent membrane preparations. Results are presented as the mean±standard errors. All enzyme assays were performed under conditions that were linear with respect to time and protein concentration. None of the seHAS variant enzymes were unstable under the conditions employed.

seHAS [3] = assay type: biochemical, Streptococcus equisimilis; details: for Hill number: seHAS variants, UDP-GlcNAc utilization
Description: as §2

spHAS [4] = test: Kinetic analysis of Cys-mutants of spHAS, normalized to spHAS protein; assay type: biochemical, Streptococcus pyogenes; design: Vmax: unit not given here
Description: Kinetic analyses of the single and multiple spHAS Cys-mutants were performed to investigate the possibility that multiple Cys residues are critical in a coordinated way for enzyme activity. […] The spHAS(C225S) and spHAS(C280A) mutants had the most reduced activities with Vmax values at 30–50% of wildtype. The spHAS(C261,280A) and Cys-null mutant had 50–75% of the wildtype activity.
Membranes were isolated from E. coli SURE strains expressing mutant or wildtype spHAS, fractionated by SDS-PAGE according to the procedure of Laemmli (1970) and the proteins were electrotransferred to nitrocellulose as described by Towbin et al. (1979) with minor modifications (Tlapak-Simmons, et al., 1998). Western analysis was performed by incubating these blots for 1 h at room temperature with a biotinylated anti-His5 monoclonal antibody, as the primary antibody, then washing and incubating with 3 μg/ml ^125I-streptavidin, prepared as described hereinabove. After 1 h at room temperature, the blots were washed, dried and exposed to a Phosphoscreen for 1 to 72 h. The screens were analyzed using a Molecular Dynamics Phosphoimager and integrated density values were obtained for each spHAS band. Integrated density values were also obtained for increasing amounts of affinity-purified spHAS (Tlapak-Simmons et al., 1999a), which was used as an internal standard in the same blot to generate a standard curve. Dilutions of membrane samples were made as necessary to ensure that all estimates of HAS quantity were in the linear range of the assay. Those membrane samples giving a linear response with increasing protein were then compared to the standard curve to calculate the amount of spHAS present per μl membrane suspension. These values were then used to normalize the kinetic results obtained using membranes from the various spHAS mutants.
E. coli SURE cells, previously transformed with plasmids containing wildtype or mutant spHAS genes, were grown to an A600 of ˜1.2 and induced with 1 mM isopropyl thio-β-D-galactoside for three h. Cells were harvested and membranes were prepared as described previously (Tlapak-Simmons, et al., 1999a). The activities of mutant spHAS variants were assessed by measuring their Vmax and Km values in isolated membranes, normalized as described above for the amount of enzyme expressed. The Km values were determined using a descending paper chromatography assay (Tlapak-Simmons, et al., 1999b), holding one UDP-sugar substrate constant and varying the other from 0.01 to 4 mM. Data were analyzed by linear regression using Haynes-Wolf plots for UDP-GIcUA or Hill plots for UDP-GIcNAc.

O=C(O)c1cc(SSc2ccc([N+](=O)[O-])c(C(=O)O)c2)ccc1[N+](=O)[O-] [5,5′-dithiobis-(2-nitrobenzoic acid)]
Inhibition of HAS Activity (% relative to control), spHAS (spHAS [1]): 52 ± 4.9% | Inhibition of HAS Activity (% relative to control), seHAS (seHAS [2]): 52 ± 6.5%

O=C(O)CI [Iodacetic acid]
Inhibition of HAS Activity (% relative to control), spHAS (spHAS [1]): 13 ± 5.4% | Inhibition of HAS Activity (% relative to control), seHAS (seHAS [2]): 15%

CSS(C)(=O)=O [Methylmethanethiosulfonate]
Inhibition of HAS Activity (% relative to control), spHAS (spHAS [1]): 89 ± 5.5% | Inhibition of HAS Activity (% relative to control), seHAS (seHAS [2]): 93 ± 5.4% | Inhibition of HAS Activity (% relative to control), seHAS (seHAS [2]; listed as methylmethanethiosulfonate): > 93%

O=[As]O [Sodium Arsenite]
inhibition at 10000 µM (spHAS [1]; read-out: Inhibition of HAS Activity (% relative to control), spHAS): 46 ± 5.1% | Vmax of treated wild-type seHAS, UDP-GlcNAc (wild-type seHAS): 9.5 ± 1.1 nmol/µg/h | Vmax of treated wild-type seHAS, UDP-GlcUA (wild-type seHAS): 9.5 ± 1.1 nmol/µg/h | Km (wild-type seHAS; read-out: Km for UDP-GlcNAc of treated wild-type seHAS): 112 ± 38 µM | Km (wild-type seHAS; read-out: Km for UDP-GlcUA of treated wild-type seHAS): 67 ± 23 µM | Inhibition of HAS Activity (% relative to control), seHAS (seHAS [2]): 40 ± 4.0%

B1: WT: wild-type Streptococcus equisimilis hyaluronan synthase (seHAS-His6), SEQ ID NO:2 (protein, listed as Streptococcus equisimilis)
chain: MRTLKNLITVVAFSIFWVLLIYVNVYLFGAKGSLSIYGFLLIAYLLVKMSLSFFYKPFKGRAGQYKVAAIIPSYNEDAESLLETLKSVQQQTYPLAEIYVVDDGSADETGIKRIEDYVRDTGDLSSNVIVHRSEKNQGKRHAQAWAFERSDADVFLTVDSDTYIYPDALEELLKTFNDPTVFAATGHLNVRNRQTNLLTRLTDIRYDNAFGVERAAQSVTGNILVCSGPLSVYRREVVVPNIDRYINQTFLGIPVSIGDDRCLTNYATDLGKTVYQSTAKCITDVPDKMSTYLKQQNRWNKSFFRESIISVKKIMNNPFVALWTILEVSMFMMLVYSVVDFFVGNVREFDWLRVLAFLVIIFIVALCRNIHYMLKHPLSFLLSPFYGVLHLFVLQPLKLYSLFTIRNADWGTRKKLL
modifications: His6 tag
Vmax (seHAS [3]; seHAS variants in membranes from E. coli SURE cells): 5.60 ± 0.48 nmol/pmol/h | Km (seHAS [3]; seHAS variants in membranes from E. coli SURE cells, read-out: Km for UDPGlcNAc): 74 ± 7 µM | Km (seHAS [3]; seHAS variants in membranes from E. coli SURE cells, read-out: Km for UDPGlcUA): 77 ± 5 µM | Hill number (seHAS [3]): 1.1 ± 0.1 | Hill number (seHAS [3]; listed as wild-type): 1.0

B2: Wildtype: wildtype Streptococcus pyogenes hyaluronan synthase (spHAS-His6), SEQ ID NO:4 (protein)
chain: T1 sequence (Q5X9A9 1-419)
modifications: His6 tag; Streptococcus pyogenes
Hill number (spHAS [4]; UDP-GlcNAc utilization): 1.8 ± 0.1 | Km (spHAS [4]; at 0.5 mM UDP-GlcUA, read-out: Km UDP-GlcNAc): 398 ± 112 µM | Km (spHAS [4]; at 1.5 mM UDP-GlcNAc, read-out: Km UDP-GlcUA): 50.4 ± 10.8 µM | Vmax (spHAS [4]; both substrates incorporated per hour per pmol spHAS): 791 ± 215

Reference: patent US7094581B2, “Hyaluronan synthases and methods of making and using same” (The Board of Regents of the University of Oklahoma, priority 1998, dated 2006)
